From patent US9585867B2, “Cannabinod formulation for the sedation of a human or animal” (priority 2015, dated 2017)
Read-outs that look alike come from different tables or passages of the source.

Experiments:
cannabinoid receptor = conditions: cited from earlier work
monkeys [1] = experiment: Repeated intravenous study with emulsified tetrahydrocannabinol in monkeys; type: in vivo; conditions: near-pure tetrahydrocannabinol
Experimental: Subsequently, intravenous studies were repeated using tetrahydrocannabinol emulsified in a sesame oil, polysorbate 80, or saline vehicles at 15 mg/ml or 40 mg/ml. The emulsions were administered at a uniform rate of 2 ml/15 sec. Doses administered were 1, 4, 16, 64, 92, 128, 192 and 256 mg/kg. All monkeys injected with 92 mg/kg or less survived and completely recovered from all effects within two to four days. An analogous intravenous dosage for a 100 kg human would be 9,200 mg (9.2 g) of near-pure tetrahydrocannabinol. All monkeys injected with 128 mg/kg or more succumb within thirty minutes for all but one subject, which took one-hundred-and-eighty minutes to expire. An analogous lethal intravenous dosage for a 100 kg human would be 12,800 mg (12.8 g) of near-pure tetrahydrocannabinol.
Histopathological changes found in the lungs of the deceased monkeys were like those described after the previous intravenous experiment. […] Behavioral changes preceding death were salivation, prostration, coma, and tremors.
Behavioral and physiological changes described clinically in the surviving monkeys followed a consistent developmental sequence and were roughly dose related in severity and duration. Onset was fifteen minutes following injection and duration was up to forty-eight hours. Huddled posture and lethargy were the most persistent changes. Constipation, anorexia, and weight loss were noted. […]

laboratory animals = conditions: cited from earlier work
rats = conditions: cited from earlier work
monkeys [2] = conditions: cited from earlier work
monkeys [3] = conditions: cited from earlier work; remark: listed apart in the source
[4] = Inventor experimentation: intermuscular injection of tetrahydrocannabinol, incapacitation; type: in vivo, human; conditions: intermuscular injection of 5.0 mg; overall healthy, 100 kg person
Experimental: If it is unnecessary to “immediately”, or to “near-immediately”, incapacitate a recipient, the inventive formulation may strictly consist of cannabinoids such as tetrahydrocannabinol. During instant inventor experimentation, an intermuscular injection of 5.0 mg of tetrahydrocannabinol rendered an overall healthy, 100 kg person, fully incapacitated within 10-30 seconds, with its effects lasting approximately four-to-six hours.

dogs = conditions: cited from earlier work
dog = conditions: cited from earlier work
monkey = conditions: cited from earlier work
mice = conditions: cited from earlier work
[5] = intravenous emulsion 15 or 40 mg/ml, 2 ml/15 sec

Compound: CCCCCCC(C)(C)c1ccc([C@@H]2C[C@H](O)CC[C@H]2CCCO)c(O)c1 [CP-55940]
- potency relative to phyto-cannabinoid THC (cannabinoid receptor): many times more potent

Compound: CCCCCc1cc(O)c2c(c1)OC(C)(C)[C@@H]1CCC(C)=C[C@@H]21 [tetrahydrocannabinol]
- analogous intravenous dosage for a 100 kg human (survived dose) (monkeys [1]; extrapolated from 92 mg/kg in monkeys): 9,200 mg
- analogous lethal intravenous dosage for a 100 kg human (monkeys [1]; extrapolated from 128 mg/kg in monkeys): 12,800 mg
- lowest intravenous dosage which causes death (laboratory animals; intravenous): approximately 1000 mg per kg of body weight
- typical lethal oral dosage (laboratory animals; oral): 225-450 mg per kg of body weight
- LD50 dose (rats): 28.6 mg per 42.47 kg of body weight
- time to lethality after intravenous injection (rats; intravenous): within minutes
- fatalities (monkeys [2]; 92 mg/kg intravenously, monkeys): no fatalities
- time to death (monkeys [2]; 128 mg/kg or more, the one remaining subject): one-hundred-and-eighty
- dose at which all monkeys succumb (monkeys [2]; [5]): ≥ 128 mg/kg
- dose at which all monkeys survived (monkeys [2]; [5]): ≤ 92 mg/kg
- time to complete recovery from all effects (monkeys [2]; monkeys injected with 92 mg/kg or less): two to four
- time to death (monkeys [2]; monkeys injected with 128 mg/kg or more, all but one subject): thirty
- time to severe respiratory depression and bradycardia after injection (monkeys [2]; monkeys that died): five
- duration of behavioral and physiological changes (monkeys [2]; surviving monkeys): up to forty-eight
- onset of behavioral and physiological changes following injection (monkeys [2]; surviving monkeys): fifteen
- time of maximal hypothermia, bradycardia and decreased respiratory rate post injection (monkeys [2]; surviving monkeys): two-to-six
- acute one dose LD50 (monkeys [3]; intravenous, monkeys, depending on concentration of the solution): 15.6 to 62.5 mg/kg
- time to complete recovery of survivors (monkeys [3]; monkeys that survived the intravenous injection): five to nine
- minimal lethal intravenous dose (monkeys [3]; monkeys, depending upon concentration): 3.9 to 15.5 mg/kg
- time to lethality after intravenous injection (monkeys [3]; monkeys, intravenous): within minutes
- duration of effects [4]: four-to-six
- time to full incapacitation [4]: 10 to 30 s
- time to complete recovery of survivors (dogs; dogs that survived the intravenous injection): five to nine
- minimal lethal intravenous dose (dogs; dogs, depending upon concentration): 25 to 99 mg/kg
- time to lethality after intravenous injection (dogs; dogs, intravenous): within minutes
- acute one dose LD50 (dogs; intravenous, dogs): 100 mg/kg
- nonlethal oral consumption (dog): 3 g/kg
- nonlethal oral consumption (monkey): 3 g/kg
- LD50 dose (mice): 28.6 mg per 42.47 kg of body weight

Compound: CCCCCCC(C)(C)c1cc(O)c2c(c1)OC(C)(C)[C@@H]1CC=C(CO)C[C@@H]21 [HU-210]
- potency relative to phyto-cannabinoid THC (cannabinoid receptor): about 100 times
